Measured values reported in patent US5155115A, “Thienopyridine derivatives” (Kyowa Hakko Kogyo Co., Ltd., priority 1991, dated 1992).

What was measured:
dd-Y-strain male mice = test: Acute Toxicity (minimum lethal dose); assay type: in vivo; conditions: mortality for 7 days
Procedure: A test compound was intraperitoneally and orally administered to dd-Y-strain male mice weighing 20 to 25 g. The minimum lethal dose (MLD) was determined by observing the mortality for 7 days after the administration.

5-HT3 receptor = 5-HT3 receptor binding test ([^3 H] quipazine, NG108-15 cell membrane fraction); set-up: species or system rat; conditions: 2 nM [^3 H] quipazine, 37° C., 60 minutes, pH 7.5; for Inhibition Rate (%) (concentration) 10^-7 M: 10^-7 M test compound; for Inhibition Rate (%) (concentration) 10^-8 M: 10^-8 M test compound
Procedure: 5-HT3 receptor binding test
Using rat neutroblastoma-glicoma NG108-15 cell membrane fraction, the binding activities of the test compounds to 5-HT3 receptor were examined.
A membrane fraction of NG108-15 cells was prepared according to the method of Neijt et al. [Naunyn-Schmiedeberg's Arch. Pharmacol., 337, 493 (1988)].
The receptor binding test was performed using [^3 H] quipazine [J. Neurochem., 52, 1787 (1989)], a high affinity ligand to 5-HT3 receptor.
A membrane fraction obtained from 4×10^5 NG108-15 cells was suspended in 1 ml of 20 mM Tris-hydrochloride buffer (pH 7.5) (hereinafterreferred to as Buffer) containing 154 mM sodium chloride. Then, 2 nM [^3 H] quipazine (2519.7 GBq/mmol; NEN CO.) and various concentrations of the test compound were added to the suspension followed by incubating at 37° C. for 60 minutes. 4 ml of ice-cold Buffer was added to terminate the reaction and then the mixture was filtered through GF/C glass fiber filter (Whatmann Co., Ltd.). The filter was washed 5 times with 2 ml of ice-cold Buffer, and put in a scintillation vial containing 8 ml of Scintisol EX-H (Wako Pure Chemicals, Inc.). Radioactivity on the filter was counted in a liquid scintillation counter (TRI-CARB 2200CA; Packard Co., Ltd.).
An inhibition of the [^3 H] quipazine binding by the test compound was estimated according to the equation; [formula]
"Total binding" is [^3 H] quipazine-binding in the absence of test compound and "non-specific binding" is [^3 H] quipazine-binding in the presence of 10 μM MDL7222 5-HT3 antagonist [Naunyn-Schmiedeberg's Arch. Pharmacol., 326, 36 (1984)].

[1] = test system: Cisplatin-induced Vomiting; test: Activity Against Cisplatin-induced Vomiting; assay type: in vivo, Suncus murinus; conditions: 1.0 mg/kg i.p., 30 minutes before cisplatin 40 mg/kg i.p., n = 10
Procedure: Activity Against Cisplatin-induced Vomiting
In one group, 5 to 10 female and male Suncus murinus animals weighing 23 to 68 g were used. According to the method of Matsuki et al. [Japan J. Pharmacol., 48, 303 (1988)], each animal was put into a separate metal net cage (width 15 cm ×length 21 cm ×height 15 cm). One hour after, a test compound or physiological saline (control) was intraperitoneally (i.p.) administered in a dose of 10 μl/g of body weight. Further 30 minutes after administration of the test compound or physiological saline (control), 40 mg/kg of cisplatin was intraperitoneally administered. Taking no account of vomiting caused for 5 minytes after administration of cisplatin, a time period (latency) for the first vomiting and the number of frequencies (episodes) of vomiting caused for the period of 5 to 120 minutes after administration were determined. The latency and the number of frequencies in the test compound administered group were compared with those in the control group. The test of significance was performed by Student's t-test.

Structure (SMILES)	MLD (mg/kg) i.p. (dd-Y-strain male mice) [mg/kg]	MLD (mg/kg) p.o. (dd-Y-strain male mice) [mg/kg]	Inhibition Rate (%) (concentration) 10^-7 M (5-HT3 receptor)	Inhibition Rate (%) (concentration) 10^-8 M (5-HT3 receptor)	Number of Vomiting episodes (mean ± S.E.M.) ([1]; 5 to 120 minutes after cisplatin, control 29.2 ± 4.5 (n = 5))	Latency (min.) (mean ± S.E.M.) ([1]; time to first vomiting, control 28.6 ± 6.3 (n = 5)) [min]
CCCCn1c(=O)c(C(=O)O[C@H]2C[C@H]3CC[C@@H](C2)N3C)c(O)c2ccsc21 [Compound 6, Endo-8-methyl-8-azabicyclo[3.2.1]oct-3-yl 7-(n-butyl)-6,7-dihydro-4-hydroxy-6-oxothieno[2,3-b]pyridine-5-carboxylate]	> 100	> 100				
CN1[C@@H]2CC[C@H]1C[C@@H](NC(=O)c1c(O)c3sccc3[nH]c1=O)C2 [Compound 1, Endo-N-(8-methyl-8-azabicyclo[3.2.1]oct-3-yl)-4,5-dihydro-7-hydroxy-5-oxothieno[3,2-b]pyridine-6-carboxamide]	> 100	> 300	94	44	9.3 ± 2.2	66.0 ± 10.4
CN1[C@@H]2CCC[C@H]1C[C@@H](NC(=O)c1c(O)c3ccsc3[nH]c1=O)C2 [Compound 9, Endo-N-(9-methyl-9-azabicyclo[3.3.1]non-3-yl)-6,7-dihydro-4-hydroxy-6-oxothieno[2,3-b]pyridine-5-carboxamide]	> 50	> 300	69	12		
CN1[C@@H]2CC[C@H]1C[C@@H](OC(=O)c1c(O)c3ccsc3[nH]c1=O)C2 [Compound 8, Endo-8-methyl-8-azabicyclo[3.2.1]oct-3-yl 6,7-dihydro-4-hydroxy-6-oxothieno[2,3-b]pyridine-5-carboxylate]	> 100	> 300				
CCCCn1c(=O)c(C(=O)O[C@H]2C[C@H]3CC[C@@H](C2)N3C)c(O)c2sccc21 [Compound 4, Endo-8-methyl-8-azabicyclo[3.2.1]oct-3-yl 4-(n-butyl)-4,5-dihydro-7-hydroxy-5-oxothieno[3,2-b]pyridine-6-carboxylate]	> 50	> 100				
CN1[C@@H]2CC[C@H]1C[C@@H](NC(=O)c1c(O)c3ccsc3[nH]c1=O)C2 [Compound 7, Endo-N-(8-methyl-8-azabicyclo[3.2.1]oct-3-yl)-6,7-dihydro-4-hydroxy-6-oxothieno[2,3-b]pyridine-5-carboxamide]			71	23		
CCCCn1c(=O)c(C(=O)N[C@H]2C[C@H]3CC[C@@H](C2)N3C)c(O)c2sccc21 [Compound 3, Endo-N-(8-methyl-8-azabicyclo[3.2.1]oct-3-yl)-4-(n-butyl)-4,5-dihydro-7-hydroxy-5-oxothieno[3,2-b]pyridine-6-carboxamide]		> 200	101	98		
CCCCn1c(=O)c(C(=O)N[C@H]2C[C@H]3CC[C@@H](C2)N3C)c(O)c2ccsc21 [Compound 5, Endo-N-(8-methyl-8-azabicyclo[3.2.1]oct-3-yl)-7-(n-butyl)-6,7-dihydro-4-hydroxy-6-oxothieno[2,3-b]pyridine-5-carboxamide]	> 100	> 300	105	100		
